Data: ChEMBL document CHEMBL1201862, “PubChem BioAssay data set” (2004)
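Results reflect a 48-hour exposure of cells in 96-well plates to compound at five concentrations. At the GI50, growth is halved.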 The source made the active and inactive calls. No stated cut-off is given here; in the data, active = GI50 up to about 1.1 µM and inactive = higher.

Experiments:
Assay in all cases: NCI anticancer screen, dose series, 48 h
SNB-78 = tested on: SNB-78
COLO 205 = tested on: COLO 205
UACC-62 = tested on: UACC-62
A549 = tested on: A549
NCI-H522 = tested on: NCI-H522
SF-539 = tested on: SF-539
M14 = tested on: M14
DMS-273 = tested on: DMS-273
DLD-1 = tested on: DLD-1
LXFL 529 = tested on: LXFL 529
UACC-257 = tested on: UACC-257
SK-MEL-2 = tested on: SK-MEL-2
SNB-75 = tested on: SNB-75
CAKI-1 = tested on: CAKI-1
HOP-18 = tested on: HOP-18
MOLT-4 = tested on: MOLT-4
SK-MEL-5 = tested on: SK-MEL-5
SW-620 = tested on: SW-620
KM-20L2 = tested on: KM-20L2
SR = tested on: SR
A498 = tested on: A498
NCI-H460 = tested on: NCI-H460
786-0 = tested on: 786-0
HL-60 = tested on: HL-60
K562 = tested on: K562
IGROV-1 = tested on: IGROV-1
KM12 = tested on: KM12
SK-MEL-28 = tested on: SK-MEL-28
OVCAR-3 = tested on: OVCAR-3
ACHN = tested on: ACHN
LOX IMVI = tested on: LOX IMVI
SF-268 = tested on: SF-268
EKVX = tested on: EKVX
OVCAR-8 = tested on: OVCAR-8
HCC 2998 = tested on: HCC 2998
SNB-19 = tested on: SNB-19
U-251 = tested on: U-251
RPMI-8226 = tested on: RPMI-8226
HOP-62 = tested on: HOP-62
OVCAR-5 = tested on: OVCAR-5
SN12C = tested on: SN12C
HCT-116 = tested on: HCT-116
RXF 631 = tested on: RXF 631
M19-MEL = tested on: M19-MEL
RXF 393 = tested on: RXF 393
HCT-15 = tested on: HCT-15
CCRF-CEM = tested on: CCRF-CEM
NCI-H226 = tested on: NCI-H226
HOP-92 = tested on: HOP-92
Malme-3M = tested on: Malme-3M
SK-OV-3 = tested on: SK-OV-3
DMS-114 = tested on: DMS-114
NCI-H23 = tested on: NCI-H23
OVCAR-4 = tested on: OVCAR-4
SF-295 = tested on: SF-295
UO-31 = tested on: UO-31
TK-10 = tested on: TK-10
HT-29 = tested on: HT-29
XF498 = tested on: XF498

For `N#CC(/C(=N/NC(=O)C(=O)NN)C(=O)NC12CC3CC(CC(C3)C1)C2)c1ccccc1` (centres undefined), the GI50 (SNB-78) was > 100 µM (inactive), the GI50 (COLO 205) was > 100 µM (inactive) and the GI50 (UACC-62) was > 100 µM (inactive). For the same compound, the GI50 (A549) was > 100 µM (inactive), the GI50 (NCI-H522) was > 100 µM (inactive) and the GI50 (SF-539) was > 100 µM (inactive). For the same compound, the GI50 (M14) was > 100 µM (inactive), the GI50 (DMS-273) was > 100 µM (inactive) and the GI50 (DLD-1) was > 100 µM (inactive). For the same compound, the GI50 (LXFL 529) was > 100 µM (inactive), the GI50 (UACC-257) was > 100 µM (inactive) and the GI50 (SK-MEL-2) was > 100 µM (inactive). For the same compound, the GI50 (SNB-75) was > 100 µM (inactive), the GI50 (CAKI-1) was > 100 µM (inactive) and the GI50 (HOP-18) was > 100 µM (inactive). The GI50 (MOLT-4) was > 100 µM (inactive), the GI50 (SK-MEL-5) was > 100 µM (inactive) and the GI50 (SW-620) was > 100 µM (inactive). The GI50 (KM-20L2) was > 100 µM (inactive), the GI50 (SR) was > 100 µM (inactive) and the GI50 (A498) was > 100 µM (inactive). For the same compound, the GI50 (NCI-H460) was > 100 µM (inactive), the GI50 (786-0) was > 100 µM (inactive) and the GI50 (HL-60) was > 100 µM (inactive). The GI50 (K562) was > 100 µM (inactive), the GI50 (IGROV-1) was > 100 µM (inactive) and the GI50 (KM12) was > 100 µM (inactive). The GI50 (SK-MEL-28) was > 100 µM (inactive), the GI50 (OVCAR-3) was > 100 µM (inactive) and the GI50 (ACHN) was > 100 µM (inactive). The GI50 (LOX IMVI) was > 100 µM (inactive), the GI50 (SF-268) was > 100 µM (inactive) and the GI50 (EKVX) was > 100 µM (inactive). The GI50 (OVCAR-8) was > 100 µM (inactive), the GI50 (HCC 2998) was > 100 µM (inactive) and the GI50 (SNB-19) was > 100 µM (inactive). The GI50 (U-251) was > 100 µM (inactive), the GI50 (RPMI-8226) was > 100 µM (inactive) and the GI50 (HOP-62) was > 100 µM (inactive). The GI50 (OVCAR-5) was > 100 µM (inactive), the GI50 (SN12C) was > 100 µM (inactive) and the GI50 (HCT-116) was > 100 µM (inactive). For the same compound, the GI50 (RXF 631) was > 100 µM (inactive), the GI50 (M19-MEL) was > 100 µM (inactive) and the GI50 (RXF 393) was > 100 µM (inactive). For the same compound, the GI50 (HCT-15) was over 100 µM, the GI50 (CCRF-CEM) was > 100 µM (inactive) and the GI50 (NCI-H226) was > 100 µM (inactive). For the same compound, the GI50 (HOP-92) was > 100 µM (inactive), the GI50 (Malme-3M) was > 100 µM (inactive) and the GI50 (SK-OV-3) was > 100 µM (inactive). The GI50 (DMS-114) was > 100 µM (inactive), the GI50 (NCI-H23) was > 100 µM (inactive) and the GI50 (OVCAR-4) was > 100 µM (inactive). The GI50 (SF-295) was > 100 µM (inactive), the GI50 (UO-31) was > 100 µM (inactive) and the GI50 (TK-10) was > 100 µM (inactive). The GI50 (HT-29) was > 100 µM (inactive).
In the case of `Nc1n[n+]([O-])c2ccccc2[n+]1[O-]` [TIRAPAZAMINE], the GI50 (SNB-78) is reported as > 100 µM (inactive), the GI50 (COLO 205) is reported as > 100 µM (inactive) and the GI50 (UACC-62) is reported as 61.7 µM (inactive). For the same compound, the GI50 (A549) was 93.5 µM (inactive), the GI50 (NCI-H522) was 99.8 µM (inactive) and the GI50 (SF-539) was > 100 µM (inactive). For the same compound, the GI50 (M14) was > 100 µM (inactive), the GI50 (DMS-273) was 52.2 µM (inactive) and the GI50 (LXFL 529) was > 100 µM (inactive). For the same compound, the GI50 (UACC-257) was 72.4 µM (inactive), the GI50 (SK-MEL-2) was > 100 µM (inactive) and the GI50 (SNB-75) was 29.6 µM (inactive). The GI50 (CAKI-1) was 46.2 µM (inactive), the GI50 (MOLT-4) was 37.4 µM (inactive) and the GI50 (SK-MEL-5) was 40.5 µM (inactive). The GI50 (SW-620) was > 100 µM (inactive), the GI50 (NCI-H460) was 49.7 µM (inactive) and the GI50 (786-0) was > 100 µM (inactive). For the same compound, the GI50 (HL-60) was > 100 µM (inactive), the GI50 (K562) was > 100 µM (inactive) and the GI50 (IGROV-1) was 75.5 µM (inactive). For the same compound, the GI50 (KM12) was > 100 µM (inactive), the GI50 (SK-MEL-28) was > 100 µM (inactive) and the GI50 (OVCAR-3) was > 100 µM (inactive). For the same compound, the GI50 (ACHN) was 48.6 µM (inactive), the GI50 (LOX IMVI) was > 100 µM (inactive) and the GI50 (SF-268) was > 100 µM (inactive). For the same compound, the GI50 (EKVX) was > 100 µM (inactive), the GI50 (OVCAR-8) was > 100 µM (inactive) and the GI50 (SNB-19) was > 100 µM (inactive). The GI50 (U-251) was > 100 µM (inactive), the GI50 (RPMI-8226) was 57.4 µM (inactive) and the GI50 (HOP-62) was 53.1 µM (inactive). For the same compound, the GI50 (OVCAR-5) was > 100 µM (inactive), the GI50 (SN12C) was > 100 µM (inactive) and the GI50 (RXF 631) was > 100 µM (inactive). For the same compound, the GI50 (M19-MEL) was 95.9 µM (inactive), the GI50 (RXF 393) was 57.5 µM (inactive) and the GI50 (HCT-15) was over 100 µM. The GI50 (CCRF-CEM) was > 100 µM (inactive), the GI50 (NCI-H226) was > 100 µM (inactive) and the GI50 (HOP-92) was 29.7 µM (inactive). For the same compound, the GI50 (Malme-3M) was 50.4 µM (inactive), the GI50 (SK-OV-3) was 73.1 µM (inactive) and the GI50 (DMS-114) was 44.4 µM (inactive). The GI50 (OVCAR-4) was > 100 µM (inactive), the GI50 (SF-295) was > 100 µM (inactive) and the GI50 (XF498) was 44.4 µM (inactive). For the same compound, the GI50 (UO-31) was > 100 µM (inactive), the GI50 (TK-10) was > 100 µM (inactive) and the GI50 (HT-29) was > 100 µM (inactive).
